# Measured values from patent publication US7259186B2, “Salts of fenofibric acid and pharmaceutical formulations thereof” (Abbott Laboratories, priority 2002, dated 2007).
# Counter-ions that a name gives are not always drawn.
# Test: Solid state photostability (ICH light exposure, HPLC recovery)
# Assay type: physicochemical
# Conditions: light 300–800 nm under ICH Guideline conditions; lack of degradation = recovery of 95% or greater
# Description: The terms “photostability” and “photostable” are used interchangeably herein and refer to a lack of degradation induced by exposure to light from 300–800 nm under the conditions described in the “Guideline for the Photostability Testing of New Drug Substances and Products” (International Conference on Harmonization. Federal Register 1997; […]:27115–22, which is herein incorporated by reference) (hereinafter referred to as the “Guidelines”). As used herein, the term of “lack of degradation” means a recovery of 95% or greater on average, preferably a recovery of 97% or greater on average and most preferably, a recovery of 99% or greater on average of the novel salts of the present invention after exposure to light from 300–800 nm under the conditions described in the Guidelines described above and pursuant to the assay described in Example 28.
# About 1–4 mg of each of fenofibric acid form I, fenofibric acid form II, choline, diethanolamine, tromethamine, sodium, calcium, ethanolamine, meglumine, L-lysine, and piperazine was weighed into separate 4 mL clear glass vials. […]
# The vials were sealed with PTFE lined caps, and divided into 2 groups with at least three replicates in each group. […] At the end of the light exposure, all samples and controls were removed and analyzed by HPLC using the conditions shown below in Table 6. […]
row,photostability (in words),SMILES
1,not photostable,"CC(C)(Oc1ccc(C(=O)c2ccc(Cl)cc2)cc1)C(=O)O [L-Lysine salt, reference compound]"
2,not photostable,"CC(C)(Oc1ccc(C(=O)c2ccc(Cl)cc2)cc1)C(=O)O [Meglumine salt, reference compound]"
